Experimental data: ChEMBL document CHEMBL6074642, “Natural and Bioinspired Lipidic Alkynylcarbinols as Leishmanicidal, Antiplasmodial, Trypanocidal, Fungicidal, Antibacterial, and Antimycobacterial Agents” (J Nat Prod, 2024)
In brackets after ≈: the same amount, converted by molar mass.

Columns and labels:
[1] = test system: Phytophthora capsici; test: Antifungal activity against Phytophthora capsici; format: functional, organism-based
[2] = test system: Leishmania donovani; test: Antileishmanial activity against Leishmania donovani amastigotes infected in J774 macrophage assessed as inhibition of parasite growth incubated for 48 hrs by luciferase assay; format: functional, organism-based; settings: J774, 48 h
[3] = test system: Bacillus subtilis; test: Antibacterial activity against Bacillus subtilis PY79 assessed as reduction in bacterial growth; format: functional, organism-based
[4] = test system: Mycobacterium tuberculosis; test: Antibacterial activity against Mycobacterium tuberculosis H37Ra assessed as reduction in bacterial growth incubated for 14 days by CLSI protocol based method; format: functional; settings: 336 h, time 14 day
[5] = test system: Mycolicibacterium smegmatis; test: Antimycobacterial activity against Mycobacterium smegmatis mc2 155 assessed as reduction in bacterial growth; format: functional
[6] = test system: Mycobacterium tuberculosis; test: Antimycobacterial activity against Mycobacterium tuberculosis H37Ra; format: functional, organism-based
[7] = test system: Mycolicibacterium aurum; test: Antimycobacterial activity against Mycobacterium aurum; format: functional
[8] = test system: Mycobacterium tuberculosis; test: Antitubercular activity against Mycobacterium tuberculosis H37Ra assessed as inhibition of bacterial growth; format: functional
[9] = test system: Mycolicibacterium fortuitum; test: Antimycobacterial activity against Mycobacterium fortuitum; format: functional
[10] = test system: Mycobacterium tuberculosis; test: Antimycobacterial activity against Mycobacterium tuberculosis H37Ra ATCC 25177 assessed as reduction in bacterial growth after 7 days by resazurin microtiter assay; format: functional; settings: H37Ra ATCC 25177, 168 h, time 7 day
[11] = test system: Leishmania amazonensis; test: Antileishmanial activity against leishmania amazonensis promastigotes MHOM/BR/77/LTB0016 assessed as assessed as parasite growth inhibition incubated for 72 hrs by Alamar Blue assay; format: functional, organism-based; settings: MHOM/BR/77/LTB0016, 72 h
[12] = test system: Leishmania donovani; test: Antileishmanial activity against amastigote form of Leishmania donovani infected in BALB/c mouse assessed as inhibition of parasite growth in liver at 10 mg/kg, po measured for 7 days by geimsa staining based analysis relative to control; format: functional; design: scale not given: the % may be the effect or the level left; settings: time 7 day
[13] = test system: Streptococcus pyogenes; test: Antibacterial activity against Streptococcus pyogenes assessed as bacterial growth inhibition; format: functional
[14] = test system: Bacillus subtilis; test: Antibacterial activity against Bacillus subtilis; format: functional
[15] = test system: Plasmodium falciparum; test: Antiparasitic activity against Plasmodium falciparum K1 assessed as reduction in parasite growth; format: functional, organism-based
[16] = test system: Alternaria kikuchiana; test: Antifungal activity against Alternaria kikuchiana; format: functional, organism-based
[17] = test system: Candida albicans; test: Antifungal activity against Candida albicans ATCC 10231 assessed as fungal growth inhibition; format: functional
[18] = test system: Escherichia coli; test: Antibacterial activity against Escherichia coli; format: functional
[19] = test system: Staphylococcus aureus; test: Antibacterial activity against Staphylococcus aureus assessed as reduction in microbial growth by CLSI based broth microdilution method; format: functional
[20] = test system: Staphylococcus aureus; test: Antimicrobial activity against methicillin-resistant Staphylococcus aureus assessed as reduction in microbial growth after 24 to 48 hrs by microdilution susceptibility test; format: functional; settings: time 24-48 hrs
[21] = test system: Bipolaris sorokiniana; test: Antifungal activity against Cochliobolus sativus; format: functional, organism-based
[22] = test system: Mycobacteroides abscessus; test: Antimycobacterial activity against Mycobacterium abscessus ATCC 19977; format: functional
[23] = test system: Mycolicibacterium fortuitum; test: Antimycobacterial activity against Mycobacterium fortuitum ATCC 6841 assessed as bacterial growth inhibition incubated for 72 hrs by resazurin dye based broth microdilution method; format: functional
[24] = test system: Mycolicibacterium smegmatis; test: Antimycobacterial activity against Mycobacterium smegmatis ATCC 14468; format: functional
[25] = test system: Mycolicibacterium phlei; test: Antimycobacterial activity against Mycobacterium phlei ATCC 11758; format: functional
[26] = test system: Plasmodium falciparum; test: Antiplasmodial activity against Plasmodium falciparum assessed as parasite growth inhibition; format: functional, organism-based
[27] = test system: Enterococcus faecalis; test: Antibacterial activity against Enterococcus faecalis; format: functional
[28] = test system: Mycobacterium tuberculosis; test: Antimycobacterial activity against Mycobacterium tuberculosis Erdman; format: functional
[29] = test system: Mycobacterium tuberculosis; test: Antimycobacterial activity against Mycobacterium tuberculosis H37Rv; format: functional

C=C[C@H](O)C#CC#C[C@H](O)c1cccs1
EC50 [1]: 2.7 µg/mL (≈ 12.4 µM)

C=C[C@H](O)C#CC#C[C@@H](CCCCCCCCC)NCCCC
IC50 [2]: 3 nM

C#CC(O)/C=C/C(O)CCCC(O)C(O)C#CC(O)C#CCCCC(O)/C=C/CCCCCCCCCCCCCCCCCCCCCC(O)C(O)C#CC(=O)O (configuration not stated)
IC50 [3]: 25 µg/mL (≈ 30.7 µM)

C=C[C@@H](O)C#CC#CC[C@H]1O[C@H]1CCCCCCC
MIC [4]: 6.13 µg/mL (≈ 23.5 µM) | MIC [5]: 25 µg/mL (≈ 96 µM)

CCCC/C=C/C#CC#CC(O)CCCCCCC(=O)O (configuration not stated)
IC50 [6]: 25 µg/mL

C=C[C@@H](O)C#CC#CC/C=C\CCCCCCC
MIC [7]: 16 µM | IC50 [6]: 15000 nM | MIC [4]: 6.25 µg/mL (≈ 25.6 µM) | MIC [8]: 3.73 µg/mL (≈ 15.3 µM) | MIC [9]: 16 µM (≈ 3.91 µg/mL) | MIC [5]: 12 µg/mL (≈ 49.1 µM)

C#CC(O)/C=C/C(O)CCCC(O)C(O)C#CC(O)C#CCCCCC(=O)CCCCC/C=C/C(O)CCCCCCCCCCCCC(O)C(O)C(O)C#CC(=O)O (configuration not stated)
IC50 [3]: 48 µg/mL (≈ 57.9 µM)

CCCC/C=C/C#CC#CCCCCCCCC(=O)O [EXOCARPIC ACID]
MIC [10]: 20 µg/mL (≈ 72.9 µM)

C=C[C@H](O)C#CC#C[C@@H](CCCCCCCCC)NC(=O)c1ccccc1
IC50 [2]: 5 nM

C=CC(O)C#CC#C/C=C/C(O)CCCCCCC (configuration not stated)
IC50 [11]: 5800 nM

C=C[C@@H](C#CC#C[C@@H](CCCCCCCCC)NC(=O)c1ccccc1)OC(C)=O
Activity [12]: 26% | IC50 [2]: 30 nM

C=C[C@@H](C#CC#C[C@@H](CCCCCCCCC)NS(C)(=O)=O)OC(C)=O
MIC [13]: 8 µM (≈ 3.05 µg/mL) | IC50 [2]: 50 nM | MIC [14]: 4 µM (≈ 1.53 µg/mL)

C=C[C@H](C#CC#C[C@@H](O)CCCCCCCCC)OC(C)=O
IC50 [15]: 8.15 µg/mL (≈ 26.8 µM) | IC50 [2]: > 10000 nM

C=C[C@@H](O)C#CC#CC/C=C\CCCCCCCC
EC50 [16]: 48 µg/mL (≈ 186 µM)

CCCCCCC/C=C\[C@H](O)C#CC#C[C@@H](O)CC [OPLOPANDIOL]
MIC [17]: 12 µg/mL (≈ 45.7 µM)

CC[C@H](O)C#CC#C[C@@H](O)/C=C\CCCCCCCCOC(C)=O [OPLOPANDIOL ACETATE]
MIC [18]: > 50 µg/mL

C=C[C@@H](O)C#CC#C[C@@H](O)/C=C\CCCCCCC [FALCARINDIOL]
MIC [19]: 7.8 µg/mL | MIC [4]: 1.6 µg/mL (≈ 6.14 µM) | MIC [20]: 16 µg/mL

C=C[C@H](O)C#CC#CC/C=C\CCCCCCCC
EC50 [21]: 26 µg/mL (≈ 101 µM)

C#CC(O)/C=C/C(O)CCCC(O)CC#CC(O)C#CC(O)CCCC(=O)CCCCC/C=C/C(O)CCCCCCCCCCCCCC(O)C(O)C#CC(=O)O (configuration not stated)
IC50 [3]: 12 µg/mL (≈ 14.8 µM)

C=C[C@@H](O)C#CC#C/C=C/[C@H](O)CCCCCCCC
EC50 [21]: 37 µg/mL (≈ 135 µM)

C=C[C@H](O)C#CC#C[C@@H](O)c1cccs1
EC50 [1]: 3.6 µg/mL (≈ 16.5 µM)

C=C[C@H](O)C#CC#CC(O)/C=C\CCCCCCC (some centres not stated)
MIC [7]: 4 µg/mL | MIC [22]: 2 µg/mL (≈ 7.68 µM) | MIC [23]: 4 µg/mL (≈ 15.4 µM) | MIC [24]: 4 µg/mL (≈ 15.4 µM) | MIC [25]: 2 µg/mL (≈ 7.68 µM)

C=C[C@@H](O)C#CC#C[C@@H](O)c1cccs1
EC50 [1]: 3.3 µg/mL (≈ 15.1 µM)

C=C[C@H](O)C#CC#C[C@H](O)CCCCCCCCC
IC50 [26]: 0.271 µg/mL (≈ 1.03 µM) | MIC [27]: 16 µM (≈ 4.2 µg/mL) | Activity [12]: 41% | MIC [13]: 8 µM (≈ 2.1 µg/mL) | IC50 [2]: 13 nM | MIC [14]: 2 µM (≈ 0.525 µg/mL)

C=CC(O)C#CC#CC(O)/C=C\CCCCCCCCOC(C)=O (configuration not stated)
MIC [28]: 1.4 µg/mL (≈ 4.21 µM) | MIC [29]: 25 µg/mL (≈ 75.2 µM)
